Common to all, as to experiment: Minimum inhibitory concentration (MIC)
Holding throughout (format): cell-based

Assay [1] has as its system Staphylococcus aureus FDA 209P JC-1. Conditions: FDA209P; Staphylococcus aureus FDA 209P JC-1, Gram +. As to the method:
(§1) The compounds of the present invention (A, C, E, F, G, H and I) and ofloxacin as control were dissolved in 0.1N aqueous potassium hydroxide to prepare a solution of 5000 μg/ml in concentration. The compounds of the present invention (B, D and J) were dissolved in sterilized distilled water to prepare a solution of 5000 μg/ml in concentration. Each solution was diluted with sterilized distilled water to prepare a standard solution with a concentration of each test compound: 1000 μg/ml. The test was carried out by a method approved by Japan Society of Chemotherapy [cf. Chemotherapy, 29, 76-79 (1981)(TOKYO)].

Assay [2] relates to Escherichia coli KC-14. Conditions: KC14; Escherichia coli KC-14, Gram -. How it is done: as §1
For assay [3], the system named is Enterobacter aerogenes ATCC 13048. Conditions: Klebsiella aerogenes, ATCC13048, Enterobacter aerogenes ATCC 13048, Gram -. As to the method: as §1
In assay [4] the test system is Enterobacter cloacae 963. The settings on record: Enterobacter cloacae 963, Gram -. How it is done:
as §1

For assay [5], the system named is Serratia marcescens IAM 1184. The settings on record: Serratia marcescens, IAM1184, Serratia marcescens IAM 1184, Gram -. As to the method: as §1
In assay [6] the test system is Proteus mirabilis IFO 3849. The settings on record: IFO3849; Proteus mirabilis IFO 3849, Gram -. How it is done: as §1
Assay [7] concerns Pseudomonas aeruginosa IFO 3445. Conditions: Pseudomonas aeruginosa, IFO3445, Pseudomonas aeruginosa IFO 3445, Gram -. How it is done:
as §1

Assay [8] has as its system Morganella morganii IFO 3848. Conditions: IFO3848; Morganella morganii IFO 3848, Gram -. As to the method: as §1
The test system of assay [9] is Shigella sonnei EW-33. The settings on record: EW33; Shigella sonnei EW-33, Gram -. How it is done: as §1
In assay [10] the test system is Staphylococcus aureus IID 803. How it is done: as §1
In assay [11] the test system is Staphylococcus epidermidis IAM-1296. Conditions: Staphylococcus epidermidis, IAM1296, Staphylococcus epidermidis IAM-1296, Gram +. As to the method: as §1
The subject of assay [12] is Streptococcus faecalis IID 682. The settings on record: Enterococcus faecalis, IID682, Streptococcus faecalis IID 682, Gram +. As to the method: as §1
The test system of assay [13] is Escherichia coli NIHJ JC-2. Conditions: NIHJJC2; Escherichia coli NIHJ JC-2, Gram -. As to the method:
as §1

In assay [14] the test system is Klebsiella pneumoniae PCI 602. The settings on record: Klebsiella pneumoniae. How it is done: as §1
Assay [15] has as its system Citrobacter freundii NIHJ 10018-68. The settings on record: NIHJ10018; Citrobacter freundii NIHJ 10018-68, Gram -. As to the method:
as §1

Assay [16] has as its system Pseudomonas aeruginosa NCTC 10490. The settings on record: Pseudomonas aeruginosa, NCTC10490, Pseudomonas aeruginosa NCTC 10490, Gram -. As to the method:
as §1

In assay [17] the test system is Bacillus subtilis ATCC 6633. Conditions: ATCC6633; Bacillus subtilis ATCC 6633, Gram +; read-out: Minimum inhibitory concentration (MIC). How it is done: as §1
Assay [18] deals with Micrococcus luteus ATCC 9341. The settings on record: ATCC9341; Micrococcus luteus ATCC 9341, Gram +. How it is done:
as §1

For assay [19], the system named is Pseudomonas aeruginosa E-2. The settings on record: E2; Pseudomonas aeruginosa E-2, Gram -. As to the method:
as §1

Assay [20] has as its system Acinetobacter calcoaceticus AC 54. Conditions: Acinetobacter calcoaceticus, AC54, Acinetobacter calcoaceticus AC 54, Gram -. How it is done: as §1
Assay [21] concerns Salmonella typhimurium IID 971. The settings on record: Salmonella enterica, Salmonella typhimurium IID 971, Gram -; read-out: Minimum inhibitory concentration (MIC). As to the method:
as §1

Assay [22] deals with Proteus vulgaris OX-19. Conditions: OX19; Proteus vulgaris OX-19, Gram -; read-out: Minimum inhibitory concentration (MIC). How it is done:
as §1

[23] abbreviates: IID803, Staphylococcus aureus IID 803, Gram +, read-out: Minimum inhibitory concentration (MIC).
Setting [24] is: PCI602, Klebsiella pneumoniae PCI 602, Gram -, read-out: Minimum inhibitory concentration (MIC).

≈ marks a conversion by molar mass, not a printed value. Where two headings read alike, the source gives them in different places.

For the compound `O=C(O)c1c(=O)c2cc(F)c(N3CCNCC3)c3c2n2c(csc12)CO3` [Compound (C), 9,1-Epoxymethano-7-fluoro-8-(1-piperazinyl)-5-oxo-5H-thiazolo[3,2-a]quinoline-4-carboxylic acid], the MIC in [1] amounted to 0.39 µg/mL; in assay [2], 0.1 µg/mL (≈ 0.266 µM); in assay [3] it was 0.1 µg/mL (≈ 0.266 µM); in assay [4], 0.2 µg/mL (≈ 0.533 µM); in assay [5], 0.39 µg/mL (≈ 1.04 µM); in assay [6], 0.2 µg/mL (≈ 0.533 µM). The MIC in [7] amounted to 0.78 µg/mL (≈ 2.08 µM); in assay [8] it was 0.1 µg/mL (≈ 0.266 µM); in assay [9], 0.05 µg/mL (≈ 0.133 µM); in assay [10] (setting [23]), 0.39 µg/mL (≈ 1.04 µM); in assay [11], 0.78 µg/mL; in assay [12], 0.78 µg/mL. Moreover, the MIC in [13] worked out at 0.1 µg/mL (≈ 0.266 µM); in assay [14] (setting [24]), 0.05 µg/mL (≈ 0.133 µM); in assay [15] it was 0.2 µg/mL (≈ 0.533 µM); in assay [16] it was 0.39 µg/mL (≈ 1.04 µM); in [17] it was 0.2 µg/mL (≈ 0.533 µM); in assay [18], 3.13 µg/mL. For the same compound, the MIC in [19] was 0.78 µg/mL (≈ 2.08 µM); in assay [20], 0.78 µg/mL (≈ 2.08 µM); in assay [21], 0.05 µg/mL (≈ 0.133 µM); in [22], 0.1 µg/mL (≈ 0.266 µM).
In the case of `NC1CCN(c2c(F)cc3c(=O)c(C(=O)O)c4scc5n4c3c2OC5)C1` (stereo not drawn) [Compound (I), 9,1-Epoxymethano-7-fluoro-8-(3-amino-1-pyrrolidinyl)-5-oxo-5H-thiazolo[3,2-a]quinoline-4-carboxylic acid], the MIC was found to be 0.2 µg/mL in [1]; 0.1 µg/mL (≈ 0.266 µM) in assay [2]; 0.1 µg/mL (≈ 0.266 µM) in assay [3]; 0.2 µg/mL (≈ 0.533 µM) in assay [4]; 0.78 µg/mL (≈ 2.08 µM) in [5]; 0.39 µg/mL (≈ 1.04 µM) in [6]. Further, the MIC in assay [7] is 0.78 µg/mL (≈ 2.08 µM); in assay [8], 0.2 µg/mL (≈ 0.533 µM); in assay [9], 0.1 µg/mL (≈ 0.266 µM); in assay [10] (setting [23]), 0.39 µg/mL (≈ 1.04 µM); in assay [11], 0.78 µg/mL; in [12] it was 0.78 µg/mL. For the same compound, the MIC in assay [13] turned out to be 0.2 µg/mL (≈ 0.533 µM); in assay [14] (PCI602, read-out: Minimum inhibitory concentration (MIC)), 0.05 µg/mL (≈ 0.133 µM); in assay [15], 0.2 µg/mL (≈ 0.533 µM); in assay [16] it was 0.39 µg/mL (≈ 1.04 µM); in assay [17], 0.2 µg/mL (≈ 0.533 µM); in assay [18] it was 1.56 µg/mL. Besides, the MIC in assay [19] is 0.78 µg/mL (≈ 2.08 µM); in [20], 0.78 µg/mL (≈ 2.08 µM); in [21], 0.1 µg/mL (≈ 0.266 µM); in [22], 0.2 µg/mL (≈ 0.533 µM).
With `O=C(O)c1c(=O)c2cc(F)c(N3CCCC3)c3c2n2c(csc12)CO3` [Compound (G), 9,1-Epoxymethano-7-fluoro-8-(1-pyrrolidinyl)-5-oxo-5H-thiazolo[3,2-a]quinoline-4-carboxylic acid], the MIC worked out at 0.025 µg/mL in assay [1]; 0.2 µg/mL (≈ 0.555 µM) in assay [2]; 0.1 µg/mL (≈ 0.277 µM) in assay [3]; 0.39 µg/mL (≈ 1.08 µM) in assay [4]; 1.56 µg/mL (≈ 4.33 µM) in assay [5]; 0.39 µg/mL (≈ 1.08 µM) in assay [6]. For the same compound, the MIC in assay [7] was 1.56 µg/mL (≈ 4.33 µM); in assay [8] it was 0.2 µg/mL (≈ 0.555 µM); in assay [9] it was 0.1 µg/mL (≈ 0.277 µM); in assay [10] (Staphylococcus aureus, IID803, read-out: Minimum inhibitory concentration (MIC)), 0.05 µg/mL (≈ 0.139 µM); in [11], 0.05 µg/mL; in assay [12], 0.2 µg/mL. For the same compound, the MIC was determined as 0.2 µg/mL (≈ 0.555 µM) in assay [13]; 0.1 µg/mL (≈ 0.277 µM) in [14] (setting [24]); 3.13 µg/mL (≈ 8.69 µM) in assay [15]; 0.78 µg/mL (≈ 2.16 µM) in [16]; 0.025 µg/mL (≈ 0.0694 µM) in [17]; 3.13 µg/mL in [18]. For the same compound, the MIC is 1.56 µg/mL (≈ 4.33 µM) in assay [19], 0.2 µg/mL (≈ 0.555 µM) in assay [20], 0.1 µg/mL (≈ 0.277 µM) in assay [21] and 0.1 µg/mL (≈ 0.277 µM) in assay [22].
